In US4443436A, “C-20-Modified macrolide derivatives of the macrolide antibiotics tylosin, desmycosin, macrocin, and lactenocin” (Eli Lilly and Company, priority 1982, dated 1984):
≈ marks a conversion by molar mass, not a printed value. Like-named read-outs stand apart in the source and are kept apart here.

Experiments:
[1] = tested on: Staphylococcus aureus V41; assay: MIC, standard agar-dilution assay, Staphylococcus aureus V41; type: cell-based
Mycoplasma hyorhinis = assay: MIC, broth-dilution microtiter test, Mycoplasma hyorhinis; type: cell-based
Description: (§1) The MIC's in Table X were obtained using conventional broth-dilution microtiter tests.

[2] = tested on: Pasteurella multocida 17E; assay: MIC, broth-dilution microtiter test, Pasteurella multocida 17E; type: cell-based
Description: as §1

Mycoplasma hyopneumoniae = assay: MIC, broth-dilution microtiter test, Mycoplasma hyopneumoniae; type: cell-based
Description: as §1

[3] = tested on: Haemophilus influenzae R252; assay: MIC, standard agar-dilution assay, Haemophilus influenzae R252; type: cell-based
Streptococcus bovis 80 = assay: MIC, broth-dilution microtiter test, Streptococcus bovis 80; type: cell-based; details: Streptococcus bovis 80, broth-dilution microtiter
Description: as §1

[4] = tested on: Pasteurella hemolytica 22C; assay: MIC, broth-dilution microtiter test, Pasteurella hemolytica 22C; type: cell-based
Description: as §1

[5] = tested on: Streptococcus pyogenes C203; assay: In vivo protection of mice experimentally infected with S. pyogenes C203; details: mice, doses given 1 and 4 hours post-infection; for ED50: Streptococcus pyogenes
Method: The C-20 modified derivatives of this invention have shown in vivo antimicrobial activity against experimentally-induced infections in laboratory animals. When two doses of test compound were administered to mice experimentally infected with S. pyogenes C203, the activity observed was measured as an ED50 value [effective dose in mg/kg to protect 50% of the test animals: see Warren Wick, et al., J. Bacteriol. 81, 233-235 (1961)].

[6] = tested on: Staphylococcus epidermidis EPI2; assay: MIC, standard agar-dilution assay, Staphylococcus epidermidis EPI2; type: cell-based
Staphylococcus aureus = assay: MIC, broth-dilution microtiter test, Staphylococcus aureus; type: cell-based
Description: as §1

[7] = tested on: Streptococcus pneumoniae Park I; assay: microbe, parasite or virus in culture; type: cell-based
[8] = tested on: Staphylococcus epidermidis EPI1; assay: MIC, standard agar-dilution assay, Staphylococcus epidermidis EPI1; type: cell-based
[9] = tested on: Staphylococcus aureus X400; assay: MIC, standard agar-dilution assay, Staphylococcus aureus X400; type: cell-based
[10] = tested on: Staphylococcus aureus S13E; assay: MIC, standard agar-dilution assay, Staphylococcus aureus S13E; type: cell-based
Mycoplasma gallisepticum = assay: MIC, broth-dilution microtiter test, Mycoplasma gallisepticum; type: cell-based; details: Mycoplasma gallisepticum, broth-dilution microtiter
Description: as §1

[11] = tested on: Streptococcus pyogenes C203; assay: MIC, standard agar-dilution assay, Streptococcus pyogenes C203; type: cell-based
Mycoplasma synoviae = assay: MIC, broth-dilution microtiter test, Mycoplasma synoviae; type: cell-based
Description: as §1

[12] = tested on: Pasteurella multocida 60A; assay: MIC, broth-dilution microtiter test, Pasteurella multocida 60A; type: cell-based
Description: as §1

Streptococcus Group 9960 = assay: MIC, standard agar-dilution assay, Streptococcus Group 9960; type: cell-based; details: Streptococcus Group 9960, agar dilution
[13] = tested on: Streptococcus Group D X66; assay: MIC, standard agar-dilution assay, Streptococcus Group D X66; type: cell-based
[14] = tested on: Haemophilus influenzae Holt; assay: MIC, standard agar-dilution assay, Haemophilus influenzae Holt; type: cell-based
[15] = tested on: Staphylococcus aureus X1.1; assay: MIC, standard agar-dilution assay, Staphylococcus aureus X1.1; type: cell-based
[16] = Streptococcus equinus, read-out: MIC
[17] = C203, sc, subcutaneous, read-out: ED50, Subcutaneous
[18] = C203, oral, read-out: ED50, Oral
[19] = Staphylococcus epidermidis, EPI1
[20] = Mycoplasmoides gallisepticum, read-out: MIC

CCC1OC(=O)CC(O)C(C)C(OC2OC(C)C(O)C(N(C)C)C2O)C(CCOC(C(F)(F)F)C(F)(F)F)CC(C)C(=O)C=CC(C)=CC1COC1OC(C)C(O)C(OC)C1OC (stereo not drawn) [Compound 32, 20-DH-20-O-[2,2,2-trifluoro-1-(trifluoromethyl)ethyl]desmycosin]
MIC ([1]; Staphylococcus aureus, V41): 0.5 µg/mL (≈ 0.541 µM)
MIC (Mycoplasma hyorhinis; Mycoplasma hyorhinis, broth-dilution microtiter, read-out: MIC): > 50 µg/mL
MIC ([2]; Pasteurella multocida, 17E): 50 µg/mL (≈ 54.1 µM)
MIC (Mycoplasma hyopneumoniae; Mesomycoplasma hyopneumoniae, Mycoplasma hyopneumoniae, broth-dilution microtiter, read-out: MIC): > 25 µg/mL
MIC ([3]; Haemophilus influenzae, R252): 128 µg/mL (≈ 139 µM)
MIC (Streptococcus bovis 80; [16]): 12.5 µg/mL (≈ 13.5 µM)
MIC ([4]; Pasteurella, 22C): 50 µg/mL (≈ 54.1 µM)
ED50 [5, 17]: > 10 mg/kg
ED50 [5, 18]: 25 mg/kg
MIC ([6]; Staphylococcus epidermidis, EPI2): 0.25 µg/mL (≈ 0.271 µM)
MIC (Staphylococcus aureus): 0.78 µg/mL (≈ 0.844 µM)
MIC ([7]; Streptococcus pneumoniae): 4 µg/mL (≈ 4.33 µM)
MIC [8, 19]: 0.5 µg/mL (≈ 0.541 µM)
MIC ([9]; Staphylococcus aureus, X400): 0.5 µg/mL (≈ 0.541 µM)
MIC ([10]; Staphylococcus aureus, S13E): 0.5 µg/mL (≈ 0.541 µM)
MIC (Mycoplasma gallisepticum; [20]): 0.19 µg/mL (≈ 0.206 µM)
MIC ([11]; Streptococcus pyogenes, C203): 0.5 µg/mL (≈ 0.541 µM)
MIC (Mycoplasma synoviae; Mycoplasmopsis synoviae): 1.56 µg/mL (≈ 1.69 µM)
MIC ([12]; Pasteurella multocida, 60A): 50 µg/mL (≈ 54.1 µM)
MIC (Streptococcus Group 9960; GROUP9960, read-out: MIC): 32 µg/mL (≈ 34.6 µM)
MIC ([13]; Streptococcus Group D X66, agar dilution, read-out: MIC): 32 µg/mL (≈ 34.6 µM)
MIC ([14]; Haemophilus influenzae Holt, ampicillin-sensitive strain, read-out: MIC): 64 µg/mL (≈ 69.3 µM)
MIC ([15]; Staphylococcus aureus, X1.1): 0.5 µg/mL (≈ 0.541 µM)

CCC1OC(=O)CC(O)C(C)C(OC2OC(C)C(O)C(N(C)C)C2O)C(CCOc2ccc(C=O)cc2)CC(C)C(=O)C=CC(C)=CC1COC1OC(C)C(O)C(OC)C1OC (stereo not drawn) [Compound 36, 20-DH-20-O-(p-formylphenyl)desmycosin]
MIC ([1]; Staphylococcus aureus, V41): 0.25 µg/mL (≈ 0.285 µM)
MIC (Mycoplasma hyorhinis; Mycoplasma): 50 µg/mL (≈ 56.9 µM)
MIC ([2]; Pasteurella multocida 17E, bovine isolate, broth-dilution microtiter, read-out: MIC): 25 µg/mL (≈ 28.5 µM)
MIC (Mycoplasma hyopneumoniae; Mesomycoplasma hyopneumoniae): 12.5 µg/mL (≈ 14.2 µM)
MIC ([3]; Haemophilus influenzae, R252): 16 µg/mL (≈ 18.2 µM)
MIC (Streptococcus bovis 80; [16]): 12.5 µg/mL (≈ 14.2 µM)
MIC ([4]; Pasteurella, 22C): 50 µg/mL (≈ 56.9 µM)
ED50 [5, 17]: 2.2 mg/kg
ED50 [5, 18]: 19 mg/kg
MIC ([6]; Staphylococcus epidermidis EPI2, agar dilution, read-out: MIC): 0.12 µg/mL (≈ 0.137 µM)
MIC (Staphylococcus aureus): 12.5 µg/mL (≈ 14.2 µM)
MIC ([7]; Streptococcus pneumoniae): 1 µg/mL (≈ 1.14 µM)
MIC [8, 19]: 0.25 µg/mL (≈ 0.285 µM)
MIC ([9]; Staphylococcus aureus, X400): 0.25 µg/mL (≈ 0.285 µM)
MIC ([10]; Staphylococcus aureus, S13E): 0.25 µg/mL (≈ 0.285 µM)
MIC (Mycoplasma gallisepticum; [20]): 25 µg/mL (≈ 28.5 µM)
MIC ([11]; Streptococcus pyogenes, C203): 1 µg/mL (≈ 1.14 µM)
MIC (Mycoplasma synoviae; Mycoplasmopsis synoviae, Mycoplasma synoviae, broth-dilution microtiter, read-out: MIC): > 50 µg/mL
MIC ([12]; Pasteurella multocida, 60A): 12.5 µg/mL (≈ 14.2 µM)
MIC (Streptococcus Group 9960; GROUP9960, read-out: MIC): 8 µg/mL (≈ 9.11 µM)
MIC [13]: 4 µg/mL (≈ 4.56 µM)
MIC ([14]; Haemophilus influenzae): 16 µg/mL (≈ 18.2 µM)
MIC ([15]; Staphylococcus aureus, X1.1): 0.25 µg/mL (≈ 0.285 µM)

CCC1OC(=O)CC(O)C(C)C(OC2OC(C)C(O)C(N(C)C)C2O)C(CCOc2ccc(-c3ccccc3)cc2)CC(C)C(=O)C=CC(C)=CC1COC1OC(C)C(O)C(OC)C1OC (stereo not drawn) [Compound 41, 20-DH-20-O-(p-Phenylphenyl)desmycosin]
MIC ([1]; Staphylococcus aureus V41, penicillin-resistant strain, agar dilution): 0.25 µg/mL (≈ 0.27 µM)
MIC (Mycoplasma hyorhinis; Mycoplasma hyorhinis, broth-dilution microtiter): 3.12 µg/mL (≈ 3.37 µM)
MIC ([2]; Pasteurella multocida 17E, bovine isolate, broth-dilution microtiter): 12.5 µg/mL (≈ 13.5 µM)
MIC (Mycoplasma hyopneumoniae; Mycoplasma hyopneumoniae, broth-dilution microtiter): 3.12 µg/mL (≈ 3.37 µM)
MIC ([3]; Haemophilus influenzae R252, ampicillin-resistant strain, agar dilution): 16 µg/mL (≈ 17.3 µM)
MIC (Streptococcus bovis 80): 0.39 µg/mL (≈ 0.421 µM)
MIC ([4]; Pasteurella hemolytica 22C, broth-dilution microtiter): 25 µg/mL (≈ 27 µM)
ED50, Oral ([5]; oral): 25 mg/kg × 2
ED50, Subcutaneous ([5]; subcutaneous): > 10 mg/kg × 2
MIC ([6]; Staphylococcus epidermidis EPI2, agar dilution): 0.25 µg/mL (≈ 0.27 µM)
MIC (Staphylococcus aureus; broth-dilution microtiter): 0.19 µg/mL (≈ 0.205 µM)
MIC ([7]; Streptococcus pneumoniae Park I, agar dilution): 0.25 µg/mL (≈ 0.27 µM)
MIC ([8]; Staphylococcus epidermidis EPI1, agar dilution): 0.5 µg/mL (≈ 0.54 µM)
MIC ([9]; Staphylococcus aureus X400, methicillin-resistant strain, agar dilution): 0.5 µg/mL (≈ 0.54 µM)
MIC ([10]; Staphylococcus aureus S13E, agar dilution): 0.25 µg/mL (≈ 0.27 µM)
MIC (Mycoplasma gallisepticum): < 0.05 µg/mL
MIC ([11]; Streptococcus pyogenes C203, agar dilution): 0.25 µg/mL (≈ 0.27 µM)
MIC (Mycoplasma synoviae; Mycoplasma synoviae, broth-dilution microtiter): 0.39 µg/mL (≈ 0.421 µM)
MIC ([12]; Pasteurella multocida 60A, avian isolate, broth-dilution microtiter): 12.5 µg/mL (≈ 13.5 µM)
MIC (Streptococcus Group 9960): 0.5 µg/mL (≈ 0.54 µM)
MIC ([13]; Streptococcus Group D X66, agar dilution): 0.5 µg/mL (≈ 0.54 µM)
MIC ([14]; Haemophilus influenzae Holt, ampicillin-sensitive strain, agar dilution): 16 µg/mL (≈ 17.3 µM)
MIC ([15]; Staphylococcus aureus X1.1, agar dilution): 0.5 µg/mL (≈ 0.54 µM)
